# From patent US9855232B2, “Crystalline forms of bimatoprost acid, methods for preparation, and methods for use thereof” (Allergan, Inc., priority 2012, dated 2018)
# Read-outs that look alike come from different tables or passages of the source.
# How the values were obtained:
# Format in all cases: physicochemical
# [1] = Thermodynamic equilibrium solubility in anisole
# Procedure: (§1) Anisole was selected as solvent based on good stability and measurable solubility of bimatoprost acid polymorphs in the studied temperature range. […] Another solvent, nitromethane, was selected to detect the solubility of bimatoprost acid at 9 and 22° C. […] At 22° C., both forms converted to oils where no comparison between the two polymorphs could be made.
# [2] = Isothermal competitive co-slurries of polymorph I and II; conditions: 1:1 ratio co-slurry at 5, 20 and 35° C.
# Procedure: The differences in free energy between the polymorphs were measured as a function of temperature in order to determine the transition temperature and relative stability versus temperature.
# [3] = Vapor sorption analysis (VSA); conditions: for relative humidity at which the monohydrate (hydrated form) forms: first adsorption
# Procedure: The crystalline monohydrate form (designated polymorph III) was discovered upon vapor sorption analysis (VSA) of both polymorph I and polymorph II. […] The conversion of polymorph I to the monohydrate form was confirmed by XRPD. […] The 2nd adsorption cycle of polymorph II reconfirms formation of the monohydrate again at RH˜75% (FIG. 7). […] The thermal analysis (MDSC) of the monohydrate form indicates a melting endotherm onset (Tonset) at 53.9° C. and a fusion enthalpy (ΔHf) of 72.4 J/g for the monohydrate form (see FIG. 8).
# [4] = Solubility in nitromethane
# Procedure: as §1
smiles,measurement,setting,value
"O=C(O)CCCC=CCC1C(O)CC(O)C1C=CC(O)CCc1ccccc1 (centres unmarked) [bimatoprost acid, 7-[3,5-Dihydroxy-2-(3-hydroxy-5-phenyl-pent-1-enyl)-cyclopentyl]-hept-5-enoic acid]",physical state in solubility study,[1]; temperatures above 40° C.,transforms to an oil
"O=C(O)CCCC=CCC1C(O)CC(O)C1C=CC(O)CCc1ccccc1 (centres unmarked) [polymorph I, 7-[3,5-Dihydroxy-2-(3-hydroxy-5-phenyl-pent-1-enyl)-cyclopentyl]-hept-5-enoic acid]",polymorph conversion / relative stability,[2],converts to polymorph II at all three temperatures
same,relative humidity at which the monohydrate (hydrated form) forms,[3]; 25° C.,~75 % RH
same,water absorbed,"[3]; RH~75%, 25° C.",4.42 w/w %
same,solubility,"[4]; 9 °C, organic solvent or mixture, thermodynamic from solid, read-out: solubility",4100 ± 300 µg/mL
"O=C(O)CCCC=CCC1C(O)CC(O)C1C=CC(O)CCc1ccccc1 (centres unmarked) [polymorph II, 7-[3,5-Dihydroxy-2-(3-hydroxy-5-phenyl-pent-1-enyl)-cyclopentyl]-hept-5-enoic acid]",polymorph conversion / relative stability,[2],more stable form over the temperature range of 5-35 °C
same,relative humidity at which the monohydrate forms,[3]; 2nd adsorption cycle,~75%
same,relative humidity at which the monohydrate (hydrated form) forms,[3]; 25° C.,above 85 % RH
same,thermodynamic equilibrium solubility (comparison of polymorphs),[1]; 6° C. and 25° C.,lower solubility
same,solubility,[4]; 9° C.,3300 ± 200 µg/mL
"O=C(O)CCCC=CCC1C(O)CC(O)C1C=CC(O)CCc1ccccc1 (centres unmarked) [polymorph III, 7-[3,5-Dihydroxy-2-(3-hydroxy-5-phenyl-pent-1-enyl)-cyclopentyl]-hept-5-enoic acid]",conversion upon drying,[3]; drying in vapor sorption analyzer at 25° C.,converted beck to the initial polymorph 1
